Values of other authors in patent publication US6733789B1 (Biovail Laboratories, Inc., priority 1999, dated 2004).

CC(C)NCC(O)COc1ccc(COCCOC(C)C)cc1 (stereo not drawn) [bisoprolol]
peak plasma concentration (after a 10 mg dose, oral): 40 ng/mL
effect of food on peak plasma concentrations (concomitant food intake or fasting): appear not to be affected by concomitant food intake or fasting
dependence of pharmacokinetic properties on age or dose (dose range 2.5-100 mg): not dependent on age or dose
excreted unchanged in the urine (in vivo): About 50%
mean plasma half life (in vivo): 10 to 12 h
pre-systemic metabolism (oral administration): below 10%
time to peak plasma concentrations (oral administration): three
adverse effects (spontaneously mentioned by patients treated with bisoprolol): Dizziness, headache and tiredness are the most frequent adverse effects
biotransformed in the liver (subsequent elimination of inactive metabolites via the kidneys): 50%
